Reference: patent US20230398130A1, “METHODS AND COMPOSITIONS FOR DIFFERENTIATING STEM CELLS” (Massachusetts Institute of Technology, priority 2020, published 2023)

How the values were obtained:
ISC-enriched organoids [1] = assay: Primary screen, 384-well 2.5-D organoid differentiation (ENR+CD, 6 days): carbachol-induced lysozyme secretion (LYZ.S); type: cell-based, murine; conditions: primary screen; for Dose.FC.LYZ.S: FC vs plate median; for Z.LYZ.S: standard z score
Excerpt: (§1) High-throughput screening.

ISC-enriched organoids [2] = assay: Primary screen, 384-well 2.5-D organoid differentiation (ENR+CD, 6 days, Target Selective Inhibitor Library, vs whole-plate median): ATP (CellTiter-Glo 3D, CTG); conditions: for Dose.FC.CTG / Z.CTG / SSMD.CTG: primary screen; for Dose.FC.CTG: FC vs plate median; for SSMD.CTG: strictly standardized mean difference
ISC-enriched organoids [3] = assay: Primary screen, 384-well 2.5-D organoid differentiation (ENR+CD, 6 days): basal lysozyme secretion (LYZ.NS); type: cell-based, murine; conditions: for Dose.FC.LYZ.NS / Z.LYZ.NS / SSMD.LYZ.NS: primary screen; for Dose.FC.LYZ.NS: FC vs plate median; for Z.LYZ.NS: standard z score; for SSMD.LYZ.NS: strictly standardized mean difference
Excerpt: as §1

[4] = dose 0.08 uM, standard z score of FC
[5] = dose 0.40 uM, standard z score of FC
[6] = dose 2.00 uM, standard z score of FC
[7] = dose 10.00 uM, standard z score of FC
[8] = 1st of the 4 dose lines of the treatment (dose not given)
[9] = 2nd of the 4 dose lines of the treatment (dose not given)
[10] = 3rd of the 4 dose lines of the treatment (dose not given)
[11] = 4th of the 4 dose lines of the treatment (dose not given)
[12] = Dose 10.00 uM, standard z score

Molecule | Z.CTG (ISC-enriched organoids [2]; [4]) | Z.CTG (ISC-enriched organoids [2]; [5]) | Z.CTG (ISC-enriched organoids [2]; [6]) | Z.CTG (ISC-enriched organoids [2]; [7]) | SSMD.LYZ.NS (ISC-enriched organoids [3]; [8]) | SSMD.LYZ.NS (ISC-enriched organoids [3]; [9]) | SSMD.LYZ.NS (ISC-enriched organoids [3]; [10]) | SSMD.LYZ.NS (ISC-enriched organoids [3]; [11]) | Dose.FC.CTG (ISC-enriched organoids [2]; Dose 0.08 uM) | Z.CTG (ISC-enriched organoids [2]; Dose 0.08 uM, standard z score) | Dose.FC.CTG (ISC-enriched organoids [2]; Dose 0.40 uM) | Z.CTG (ISC-enriched organoids [2]; Dose 0.40 uM, standard z score) | Dose.FC.CTG (ISC-enriched organoids [2]; Dose 2.00 uM) | Z.CTG (ISC-enriched organoids [2]; Dose 2.00 uM, standard z score) | Dose.FC.CTG (ISC-enriched organoids [2]; Dose 10.00 uM) | Z.CTG (ISC-enriched organoids [2]; [12]) | SSMD.CTG (ISC-enriched organoids [2]; [8]) | SSMD.CTG (ISC-enriched organoids [2]; [9]) | SSMD.CTG (ISC-enriched organoids [2]; [10]) | SSMD.CTG (ISC-enriched organoids [2]; [11]) | further results
COc1cc(CCc2cc(NC(=O)c3ccc(N4CC(C)NC(C)C4)cc3)n[nH]2)cc(OC)c1 (centres unmarked) [AZD4547] | 0.382 | 0.241 | −0.024 | −0.147 | – | – | – | – | – | – | – | – | – | – | – | – | – | – | – | – | Dose.FC.LYZ.S (ISC-enriched organoids [1]; dose 0.08 uM, ENR+CD 6 days): 0.157 log 2 fold change; Dose.FC.LYZ.S (ISC-enriched organoids [1]; dose 0.40 uM, ENR+CD 6 days): 0.083 log 2 fold change; Dose.FC.LYZ.S (ISC-enriched organoids [1]; dose 2.00 uM, ENR+CD 6 days): 0.074 log 2 fold change; Dose.FC.LYZ.S (ISC-enriched organoids [1]; dose 10.00 uM, ENR+CD 6 days): −0.049 log 2 fold change; Dose.FC.CTG (ISC-enriched organoids [2]; dose 0.08 uM, ENR+CD 6 days): 0.160 log 2 fold change; Dose.FC.CTG (ISC-enriched organoids [2]; dose 0.40 uM, ENR+CD 6 days): 0.101 log 2 fold change; Dose.FC.CTG (ISC-enriched organoids [2]; dose 2.00 uM, ENR+CD 6 days): −0.010 log 2 fold change; Dose.FC.CTG (ISC-enriched organoids [2]; dose 10.00 uM, ENR+CD 6 days): −0.062 log 2 fold change
CC(C)(C#N)c1cc(Cn2cncn2)cc(C(C)(C)C#N)c1 [Anastrozole] | −0.279 | 0.057 | −0.139 | −1.191 | – | – | – | – | – | – | – | – | – | – | – | – | – | – | – | – | SSMD.LYZ.S (ISC-enriched organoids [1]; strictly standardized mean difference of replicates, four lines per treatment = four doses (dose not given), column head inferred): 0.304
CC(C)C[C@H](NC(=O)[C@H](Cc1ccccc1)NC(=O)c1cnccn1)B(O)O [Bortezomib (PS-341)] | −4.547 | −5.127 | −2.185 | −3.246 | – | – | – | – | – | – | – | – | – | – | – | – | – | – | – | – | Dose.FC.LYZ.S (ISC-enriched organoids [1]; dose 0.08 uM, ENR+CD 6 days): −0.239 log 2 fold change; Dose.FC.LYZ.S (ISC-enriched organoids [1]; dose 0.40 uM, ENR+CD 6 days): −0.173 log 2 fold change; Dose.FC.LYZ.S (ISC-enriched organoids [1]; dose 2.00 uM, ENR+CD 6 days): −0.249 log 2 fold change; Dose.FC.LYZ.S (ISC-enriched organoids [1]; dose 10.00 uM, ENR+CD 6 days): −0.238 log 2 fold change; Dose.FC.CTG (ISC-enriched organoids [2]; dose 0.08 uM, ENR+CD 6 days): −1.904 log 2 fold change; Dose.FC.CTG (ISC-enriched organoids [2]; dose 0.40 uM, ENR+CD 6 days): −2.146 log 2 fold change; Dose.FC.CTG (ISC-enriched organoids [2]; dose 2.00 uM, ENR+CD 6 days): −0.915 log 2 fold change; Dose.FC.CTG (ISC-enriched organoids [2]; dose 10.00 uM, ENR+CD 6 days): −1.359 log 2 fold change
C=CC(=O)N1CCC[C@@H](n2nc(-c3ccc(Oc4ccccc4)cc3)c3c(N)ncnc32)C1 [Ibrutinib (PCI-32765)] | – | – | – | – | −0.704 | −1.031 | −1.175 | −1.325 | −0.027 log 2 fold change | −0.065 | −0.466 log 2 fold change | −1.112 | −0.521 log 2 fold change | −1.244 | −0.931 log 2 fold change | −2.224 | −0.062 | −0.574 | −1.005 | −0.875 | Dose.FC.LYZ.NS (ISC-enriched organoids [3]; Dose 0.08 uM): −0.071 log 2 fold change; Z.LYZ.NS (ISC-enriched organoids [3]; Dose 0.08 uM): −0.619; Dose.FC.LYZ.NS (ISC-enriched organoids [3]; Dose 0.40 uM): −0.141 log 2 fold change; Z.LYZ.NS (ISC-enriched organoids [3]; Dose 0.40 uM): −1.225; Dose.FC.LYZ.NS (ISC-enriched organoids [3]; Dose 2.00 uM): −0.202 log 2 fold change; Z.LYZ.NS (ISC-enriched organoids [3]; Dose 2.00 uM): −1.763; Dose.FC.LYZ.NS (ISC-enriched organoids [3]; Dose 10.00 uM): −0.199 log 2 fold change; Z.LYZ.NS (ISC-enriched organoids [3]; Dose 10.00 uM): −1.737
Cc1ccc(NC(=O)c2ccc(CN3CCN(C)CC3)cc2)cc1Nc1nccc(-c2cccnc2)n1 [Imatinib (STI571)] | – | – | – | – | 0.326 | 0.108 | 0.152 | −0.330 | −0.150 log 2 fold change | −0.357 | 0.079 log 2 fold change | 0.188 | 0.056 log 2 fold change | 0.135 | −0.034 log 2 fold change | −0.082 | −0.258 | 0.254 | 0.194 | −0.097 | Dose.FC.LYZ.NS (ISC-enriched organoids [3]; Dose 0.08 uM): 0.033 log 2 fold change; Z.LYZ.NS (ISC-enriched organoids [3]; Dose 0.08 uM): 0.284; Dose.FC.LYZ.NS (ISC-enriched organoids [3]; Dose 0.40 uM): 0.012 log 2 fold change; Z.LYZ.NS (ISC-enriched organoids [3]; Dose 0.40 uM): 0.104; Dose.FC.LYZ.NS (ISC-enriched organoids [3]; Dose 2.00 uM): 0.025 log 2 fold change; Z.LYZ.NS (ISC-enriched organoids [3]; Dose 2.00 uM): 0.217; Dose.FC.LYZ.NS (ISC-enriched organoids [3]; Dose 10.00 uM): −0.038 log 2 fold change; Z.LYZ.NS (ISC-enriched organoids [3]; Dose 10.00 uM): −0.333
CC1=C(/C=C/C(C)=C/C=C/C(C)=C\C(=O)O)C(C)(C)CCC1 [Isotretinoin] | – | – | – | – | 0.753 | 0.312 | 0.410 | 0.680 | – | 0.982 | – | 0.965 | – | 0.604 | – | 0.331 | 1.156 | 0.966 | 0.779 | 0.304 | –
O=c1cc(-c2cccc3c2Sc2ccccc2S3)oc(N2CCOCC2)c1 [KU-55933 (ATM Kinase Inhibitor)] | – | – | – | – | – | – | – | – | 0.524 log 2 fold change | 1.251 | 0.477 log 2 fold change | 1.140 | 0.551 log 2 fold change | 1.317 | 0.541 log 2 fold change | 1.293 | 1.626 | 1.743 | 1.554 | 1.744 | Dose.FC.LYZ.S (ISC-enriched organoids [1]; Dose 0.08 uM): 0.168 log 2 fold change; Dose.FC.LYZ.S (ISC-enriched organoids [1]; Dose 0.40 uM): 0.200 log 2 fold change; Dose.FC.LYZ.S (ISC-enriched organoids [1]; Dose 2.00 uM): 0.161 log 2 fold change; Dose.FC.LYZ.S (ISC-enriched organoids [1]; Dose 10.00 uM): 0.076 log 2 fold change; Z.LYZ.S (ISC-enriched organoids [1]; [8]): 1.088; Z.LYZ.S (ISC-enriched organoids [1]; [9]): 1.291; Z.LYZ.S (ISC-enriched organoids [1]; [10]): 1.043; Z.LYZ.S (ISC-enriched organoids [1]; [11]): 0.494; SSMD.LYZ.S (ISC-enriched organoids [1]; strictly standardized mean difference, 1st of the 4 dose lines of the treatment (dose not given)): 1.113; SSMD.LYZ.S (ISC-enriched organoids [1]; strictly standardized mean difference, 2nd of the 4 dose lines of the treatment (dose not given)): 0.994; SSMD.LYZ.S (ISC-enriched organoids [1]; strictly standardized mean difference, 3rd of the 4 dose lines of the treatment (dose not given)): 1.246; SSMD.LYZ.S (ISC-enriched organoids [1]; strictly standardized mean difference, 4th of the 4 dose lines of the treatment (dose not given)): 0.400
NC(=O)c1cccc(-c2cccc(OC(=O)NC3CCCCC3)c2)c1 [URB597] | – | – | – | – | – | – | – | – | – | – | – | – | – | – | – | – | – | – | – | – | Z.LYZ.NS (standard z score) (ISC-enriched organoids [3]; dose 0.08 uM): 0.754; Z.LYZ.NS (standard z score) (ISC-enriched organoids [3]; dose 0.40 uM): −0.007; Z.LYZ.NS (standard z score) (ISC-enriched organoids [3]; dose 2.00 uM): 0.307; Z.LYZ.NS (standard z score) (ISC-enriched organoids [3]; dose 10.00 uM): −0.123; Z.CTG (standard z score) (ISC-enriched organoids [2]; dose 0.08 uM): 0.750; Z.CTG (standard z score) (ISC-enriched organoids [2]; dose 0.40 uM): 0.154; Z.CTG (standard z score) (ISC-enriched organoids [2]; dose 2.00 uM): 0.328; Z.CTG (standard z score) (ISC-enriched organoids [2]; dose 10.00 uM): −0.051
VU 0357121 | – | – | – | – | – | – | – | – | – | – | – | – | – | – | – | – | – | – | – | – | Z.LYZ.NS (standard z score) (ISC-enriched organoids [3]; dose 0.08 uM): 0.686; Z.LYZ.NS (standard z score) (ISC-enriched organoids [3]; dose 0.40 uM): −0.090; Z.LYZ.NS (standard z score) (ISC-enriched organoids [3]; dose 2.00 uM): 0.261; Z.CTG (standard z score) (ISC-enriched organoids [2]; dose 0.08 uM): 0.438; Z.CTG (standard z score) (ISC-enriched organoids [2]; dose 0.40 uM): 0.352; Z.CTG (standard z score) (ISC-enriched organoids [2]; dose 2.00 uM): 0.029; Z.CTG (standard z score) (ISC-enriched organoids [2]; dose 10.00 uM): −0.141
